Read-outs that look alike come from different tables or passages of the source.

These results are taken from patent US5308605A, “Diagnosis of tumors with 5-radioiodo-2'-deoxyuridine” (priority 1992, dated 1994).

The conditions of data set [1]: mouse; unincorporated IUdR; cited from earlier work.
For data set [2] the following is noted: humans; unincorporated IUdR; cited from earlier work.
In data set [3] the test system is transitional cell carcinoma of the bladder. Description: Planar scintigraphy of MNU-induced bladder cancer. The format is in vivo, Fisher 344 rats. The following applies: day 3, intravesical.
Experimental: The carcinogen N-methyl-N-nitrosourea (MNU), known to induce transitional cell carcinoma of the bladder, was instilled directly into the bladder lumen of 4-to-5-week old female Fisher 344 rats (20 animals) via bladder catheterization using a 22-gauge angiocatheter (1.5 mg/0.15 ml saline intravesically, every other week for a total of 4 doses). The drinking water was supplemented with a combination of trimethoprim-sulfamethoxasole, neomycin sulfate and polymixin B. Twelve to sixteen weeks after the last MNU infusion, the bladder was catheterized and emptied and [^125 I/^131 I ]IUdR (6. 4 to 10. 9 MBq [^125 I]IUdR [172 to 294 μCi] and 10.7 MBq [^131 I ]IUdR [290 μCi]) was administered through the catheter in a 100- or 200- μl volume and left in place for 2 h. The bladder contents were then withdrawn and the bladder rinsed with normal saline (5×1-ml). Nontumor-bearing control rats (16 animals) were injected by the same route with identical amounts of [^125 I/^131 I]IUdR. The drinking water of all animals was supplemented with 0. 1% potassium iodide from 48 to 72 h prior to the administration of the radiopharmaceutical up to the time of sacrifice. The tumor-bearing rats and the non-tumor bearing control rats were divided into Group A consisting of 12 tumor-bearing and 12 control rats, and Group B consisting of 8 tumor-bearing and 4 control rats. […]
In data set [4] the test system is murine ovarian tumor (MOT). Description: Antineoplastic effect (survival fraction, median survival) in mouse ascites tumor. It is filed as in vivo, C3HeB/FeJ mice. From the text: 2. ^125 IUdR Is an Effective Antineoplastic Agent In A Mouse Ascites Tumor. The tumor used in these experiments is the same murine ovarian tumor described above. We have determined the median survival of mice after i.p. challenge with various tumor cell inocula.
The relatively long survival of tumor-bearing mice facilitates quantitative evaluation of tumor cell killing after treatment with ^125 IUdR and can be used to calculate a cellular survival fraction.

The test system of data set [5] is 9 L gliosarcoma. In words: Scintigraphic imaging of brain tumors after intratumor injection. The following applies: control animals; images 12-38 h.
Data set [6] has as its system murine ovarian tumor (MOT). Description: Scintigraphic imaging of ovarian tumor-bearing mice. The format is in vivo, C3HeB/FeJ mice. Particulars: later than 1 h (2, 16, 24 hr); 300 μCi.
Data set [7] deals with 9 L gliosarcoma. Description: Biodistribution 40 h after injection in brain tumor-bearing rats.
Data set [8] deals with DNA. Description: Microautoradiography of bladder, intestine and bone marrow. It is filed as in vivo, Fisher 344 rats. Here is the method: The carcinogen N-methyl-N-nitrosourea (MNU), known to induce transitional cell carcinoma of the bladder, was instilled directly into the bladder lumen of 4-to-5-week old female Fisher 344 rats (20 animals) via bladder catheterization using a 22-gauge angiocatheter (1.5 mg/0.15 ml saline intravesically, every other week for a total of 4 doses). The drinking water was supplemented with a combination of trimethoprim-sulfamethoxasole, neomycin sulfate and polymixin B. Twelve to sixteen weeks after the last MNU infusion, the bladder was catheterized and emptied and [^125 I/^131 I ]IUdR (6. 4 to 10. 9 MBq [^125 I]IUdR [172 to 294 μCi] and 10.7 MBq [^131 I ]IUdR [290 μCi]) was administered through the catheter in a 100- or 200- μl volume and left in place for 2 h. The bladder contents were then withdrawn and the bladder rinsed with normal saline (5×1-ml). Nontumor-bearing control rats (16 animals) were injected by the same route with identical amounts of [^125 I/^131 I]IUdR. The drinking water of all animals was supplemented with 0. 1% potassium iodide from 48 to 72 h prior to the administration of the radiopharmaceutical up to the time of sacrifice. The tumor-bearing rats and the non-tumor bearing control rats were divided into Group A consisting of 12 tumor-bearing and 12 control rats, and Group B consisting of 8 tumor-bearing and 4 control rats. Group A was sacrificed 48 hours after administration of the radiopharmaceutical while Group B was sacrificed one (1) week after administration of the radiopharmaceutical.
The specificity of targeting and the DNA-incorporation of [^125 I]IUdR were determined by microautoradiography. The distribution and frequency of grains were assessed over the entire section and compared to the histopathologic findings. At the time of the biodistribution studies, the small intestine and the large intestine were quickly frozen in isopentane and liquid nitrogen. Bone marrow smears were fixed in 100% methanol. After rinsing with normal saline, the bladder was fixed in situ with 10% buffered formaldehyde, excised, and subsequently embedded in paraffin. The tissues were then sectioned (5-7 μm thickness), fixed (except for the bladder sections already fixed in vivo) and processed for autoradiography as were the bone marrow smears.
The tissue sections and bone marrow slides were coated with NTB2 emulsion (Kodak) and stored desiccated at 4° C. in light-tight boxes. After various times of emulsion exposure (up to 7 months), the autoradiographic slides were developed for 3 min in D-19 developer (Kodak) and fixed for 5 min in D-11 fixer (Kodak). Finally, the tissue sections were washed in distilled water, stained with hematoxylin/eosin, dehydrated, cleared, and mounted in Permount. Bone marrow slides were stained with Giemsa stain. Tissue and bone marrow slides were then examined under light microscopy.

For data set [9], the system named is transitional cell carcinoma of the bladder. The format is in vivo, Fisher 344 rats. From the text: No carrier added [^125 I/^131 I] IUdR was synthesized as described previously, see U.S. Pat. No. 4,851,520 hereby incorporated by reference, and purified on a C18 reverse phase HPLC column. The radiochemical purity of the product was>99% as determined by TLC with specific activities of 81.40 TBq/mmol and 96.94 GBq/mmol for [^125 I] IUdR and [^131 I] IUdR, respectively.
The carcinogen N-methyl-N-nitrosourea (MNU), known to induce transitional cell carcinoma of the bladder, was instilled directly into the bladder lumen of 4-to-5-week old female Fisher 344 rats (20 animals) via bladder catheterization using a 22-gauge angiocatheter (1.5 mg/0.15 ml saline intravesically, every other week for a total of 4 doses). […]
The biodistribution studies were conducted at 48 hours and at 1 week after administration of radiolabeled IUdR in order to quantitate the in vivo distribution of the radiopharmaceutical in terms of percent injected dose per gram of tissue (%ID/g) and to derive tumor to normal tissue ratios. Various organs and tissues of interest were excised, rinsed, blotted dry, weighed, and their radioactive content was determined in a gamma counter along with that of urine, stomach contents, blood and bone marrow.

Turning to `O=c1[nH]c(=O)n([C@H]2C[C@H](O)[C@@H](CO)O2)cc1I` [IUdR, 5-Iodo-2'-deoxyuridine], the half-life in circulation result is on record as “less than seven” in data set [1] and “less than five” in [2].

On to `O=c1[nH]c(=O)n([C@H]2C[C@H](O)[C@@H](CO)O2)cc1I` [[^131 I]IUdR, 5-iodo-2'-deoxyuridine], for which, in [3], the “scintigraphic activity in normal animals” value is reported as “virtual absence of activity in normal animals” and the “scintigraphic activity in tumor-bearing animals” value was “only visible area of activity remaining in the tumor-bearing animals was over the region of the bladder”. In addition, the decrease in survival entry in data set [4] (equivalent doses, 131I label) is “does not result in any decrease in survival”.

Take `O=c1[nH]c(=O)n([C@H]2C[C@H](O)[C@@H](CO)O2)cc1I` [^123 IUdR, 5-iodo-2'-deoxyuridine]: the “clearance of activity from the head” value in [5] is “clearance of the activity from the head of all control animals by 12 h”. For the same compound, in [6], the “focal area of abdominal activity, later time points” value is “persisted only in MOT-bearing mice while it cleared from the abdomen of animals without tumor”. Besides, in data set [4] (5 i.p. injections, 4 h intervals), the “survival fraction of tumor cells as a function of dose” value was “an exponential decrease is obtained similar to that observed with the ^125 IUdR data”. Moreover, in [4] (5 i.p. injections, 4 h intervals, 24 h post tumor inoculation), the “median survival of tumor-bearing animals” value was “prolongs median survival of the tumor-bearing animals (FIG. 7 of the incorporated patent) in a dose-dependent fashion”. For the same compound, in data set [7] (one animal, tumor occupied large portion of right brain specimen), the “injected dose found in tumor” value is on record as 25 % of the injected dose. Besides, the “injected dose per gram, right brain (injected side), sham-operated” value in [7] (sham-operated controls, mean±SD) was 0.09±0.02 %ID/g. Also, in data set [7] (tumor-bearing animals, mean±SD, P<0.05 vs sham), the “injected dose per gram, right brain (injected side), tumor-bearing” value was 0.36±0.14 %ID/g.

Regarding `O=c1[nH]c(=O)n([C@H]2C[C@H](O)[C@@H](CO)O2)cc1I` [^125 IUdR, 5-iodo-2'-deoxyuridine], the “penetration into the bladder wall” value in data set [8] (animals with infection/inflammation) was “potential for radiolabeled IUdR to penetrate deep within the bladder wall”. Besides, the “uptake in squamous metaplasia and bacteria” value in [8] (basal layer of squamous metaplasia, bacteria when active infection present) is “Uptake was also observed in the basal layer of squamous metaplasia and in bacteria when active infection was present”. The “cell-associated silver grains in bone marrow smears” value in data set [8] (bone marrow) was “free of cell-associated silver grains”. Moreover, the “uptake in the urothelium of control animals” value in data set [8] (control animals) is given as “did not show uptake in the urothelium”. In addition, the “autoradiographic uptake by the tumor” value in data set [8] (hyperplasia and papillary carcinoma stages) is on record as “uptake of radiolabeled IUdR by the tumor at the early stage of tumor development, i.e. the hyperplasia stage, as well as in the later papillary carcinoma stage”. In [8] (rat, in vivo), the “silver grains in actively dividing normal epithelia” value was “did not show the presence of silver grains” and the “silver grains in normal urothelium” value is listed as “generally free of silver grains”. Moreover, the “DNA incorporation by abnormal urothelium vs normal” value in data set [8] (tumor-bearing animals) is “always significantly higher”. Moreover, the “percent injected dose per gram of bladder, tumor-bearing vs control” value in [9] (48 h) was “significant difference”. In addition, the “permeation to the systemic circulation” value in data set [9] (rat, not told) is on record as “very low”. The “tumor cell survival fraction (plateau)” value in data set [4] (seven consecutive injections) was 10^-5.
